These results are taken from ChEMBL document CHEMBL6114988, “Design, synthesis and biological evaluation of dual CDK9/PARP inhibitors for the treatment of cancer” (Eur J Med Chem, 2025).

The test system of one data set is MOLM-13. The data set is described as follows: Antiproliferative activity against human MOLM-13 cells assessed as inhibition of cell proliferation incubated for 48 hrs by CCK-8 assay. It counts as functional, cell-based. The following applies: MOLM-13, 48 h.
The next data set concerns MV4-11. The data set is described as follows: Antiproliferative activity against human MV4-11 cells assessed as inhibition of cell proliferation incubated for 48 hrs by CCK-8 assay. It is filed as functional, cell-based. The following applies: MV4-11, 48 h. For orientation: Tetrazolium dyes change colour on reduction, which living cells bring about.
In data set [1] the test system is MDA-MB-231. As to the kind of experiment: Induction of apoptosis in human MDA-MB-231 cells assessed as viable cell at 1 uM incubated for 24 hrs by Annexin V-FITC/PI staining based analysis (reference value: 96.3 %). It is filed as functional.
The test system of data set [2] is MDA-MB-231. The data set is described as follows: Induction of apoptosis in human MDA-MB-231 cells assessed as early apoptotic cell at 1 uM incubated for 24 hrs by Annexin V-FITC/PI staining based analysis (reference value: 0.96 %). It is filed as functional.
Data set [3] deals with MDA-MB-231. The data set is described as follows: Induction of apoptosis in human MDA-MB-231 cells assessed as late apoptotic cell at 1 uM incubated for 24 hrs by Annexin V-FITC/PI staining based analysis (reference value: 2.61 %). It is filed as functional.
The subject of data set [4] is MDA-MB-231. As to the kind of experiment: Induction of apoptosis in human MDA-MB-231 cells assessed as necrotic cell at 1 uM incubated for 24 hrs by Annexin V-FITC/PI staining based analysis (reference value: 0.10 %). It is filed as functional.
Data set [5] relates to MDA-MB-231. As to the kind of experiment: Induction of cell cycle arrest in human MDA-MB-231 cells assessed as accumulation of cells at G1 phase at 1 uM incubated for 24 hrs by PI staining based flow cytometric analysis (reference value: 58.1%). It is filed as functional. For orientation: Flow cytometry measures light scatter and fluorescence of single cells or particles in a stream.

Data set [6] concerns MDA-MB-231. As to the kind of experiment: Induction of cell cycle arrest in human MDA-MB-231 cells assessed as accumulation of cells at S phase at 1 uM incubated for 24 hrs by PI staining based flow cytometric analysis (reference value: 29.2%). It is filed as functional.
The test system of data set [7] is MDA-MB-231. As to the kind of experiment: Induction of cell cycle arrest in human MDA-MB-231 cells assessed as accumulation of cells at G2/M phase at 1 uM incubated for 24 hrs by PI staining based flow cytometric analysis (reference value: 11.3%). It is filed as functional.
Data set [8] is described as follows: Metabolic stability in rat liver microsomes assessed as half life at 1 mg/ml incubated for 60 min in presence of NADPH by HPLC analysis. It is filed as ADME, Microsome. (Liver microsomes are vesicles of endoplasmic reticulum, rich in cytochrome P450 enzymes.)
Data set [9] is described as follows: Metabolic stability in artificial gastric fluid assessed as parent compound remaining at 1 mg/ml incubated for 8 hrs by HPLC analysis. It counts as ADME. Conditions: read-out: Stability.
Data set [10] in a line: Metabolic stability in artificial intestinal fluid assessed as parent compound remaining at 1 mg/ml incubated for 8 hrs by HPLC analysis. It is filed as ADME. The following applies: read-out: Stability.
Data set [11] can be described thus: Metabolic stability in plasma assessed as parent compound remaining incubated for 3 hrs by HPLC analysis. It is filed as ADME, cell-free. Conditions: read-out: Stability.
In another data set the test system is HeLa. The data set is described as follows: cells. Conditions: Homo sapiens, 48 h.
For a further data set, the system named is HCT-116. The data set is described as follows: cells. The following applies: Homo sapiens, HCT-116, 48 h.
For the next data set, the system named is MCF7. The data set is described as follows: cells. The following applies: Homo sapiens, MCF7, 48 h.
Data set [12] has as its system MDA-MB-231. The data set is described as follows: cells. Conditions: Homo sapiens, MDA-MB-231, 48 h.
Description: Antiproliferative activity against human MDA-MB-231 cells assessed as inhibition of cell proliferation incubated for 48 hrs by CCK-8 assay
The target in data set [13] is Poly [ADP-ribose] polymerase 1 (Homo sapiens, UniProt P09874). As to the kind of experiment: Inhibition of PARP1 (unknown origin) incubated for 1 hr by ELISA.
For data set [14], the target named is Cyclin-dependent kinase 9 (Homo sapiens, UniProt P50750).
Description: Inhibition of CDK9 (unknown origin) using lipid substrate incubated for 40 mins in presence of ATP by kinase-Glo plus luminescence assay
In data set [15] the test system is MDA-MB-231. The data set is described as follows: Induction of apoptosis in human MDA-MB-231 cells assessed as viable cell at 0.2 uM incubated for 24 hrs by Annexin V-FITC/PI staining based analysis (reference value: 96.3 %). It counts as functional.
In data set [16] the test system is MDA-MB-231. As to the kind of experiment: Induction of apoptosis in human MDA-MB-231 cells assessed as early apoptotic cell at 0.2 uM incubated for 24 hrs by Annexin V-FITC/PI staining based analysis (reference value: 0.96 %). It is filed as functional.
For data set [17], the system named is MDA-MB-231. As to the kind of experiment: Induction of apoptosis in human MDA-MB-231 cells assessed as late apoptotic cell at 0.2 uM incubated for 24 hrs by Annexin V-FITC/PI staining based analysis (reference value: 2.61 %). It is filed as functional.
In data set [18] the test system is MDA-MB-231. As to the kind of experiment: Induction of apoptosis in human MDA-MB-231 cells assessed as necrotic cell at 0.2 uM incubated for 24 hrs by Annexin V-FITC/PI staining based analysis (reference value: 0.10 %). It is filed as functional.
Data set [19] relates to MDA-MB-231. The data set is described as follows: Induction of apoptosis in human MDA-MB-231 cells assessed as viable cell at 10 uM incubated for 24 hrs by Annexin V-FITC/PI staining based analysis (reference value: 96.3 %). It is filed as functional.
In data set [20] the test system is MDA-MB-231. As to the kind of experiment: Induction of apoptosis in human MDA-MB-231 cells assessed as early apoptotic cell at 10 uM incubated for 24 hrs by Annexin V-FITC/PI staining based analysis (reference value: 0.96 %). It is filed as functional.
Data set [21] concerns MDA-MB-231. The data set is described as follows: Induction of apoptosis in human MDA-MB-231 cells assessed as late apoptotic cell at 10 uM incubated for 24 hrs by Annexin V-FITC/PI staining based analysis (reference value: 2.61 %). It counts as functional.
Data set [22] concerns MDA-MB-231. As to the kind of experiment: Induction of apoptosis in human MDA-MB-231 cells assessed as necrotic cell at 10 uM incubated for 24 hrs by Annexin V-FITC/PI staining based analysis (reference value: 0.10 %). It counts as functional.
Data set [23] deals with MDA-MB-231. As to the kind of experiment: Induction of cell cycle arrest in human MDA-MB-231 cells assessed as accumulation of cells at G1 phase at 0.2 uM incubated for 24 hrs by PI staining based flow cytometric analysis (reference value: 58.1%). It counts as functional.
In data set [24] the test system is MDA-MB-231. As to the kind of experiment: Induction of cell cycle arrest in human MDA-MB-231 cells assessed as accumulation of cells at S phase at 0.2 uM incubated for 24 hrs by PI staining based flow cytometric analysis (reference value: 29.2%). It counts as functional.
The subject of data set [25] is MDA-MB-231. The data set is described as follows: Induction of cell cycle arrest in human MDA-MB-231 cells assessed as accumulation of cells at G2/M phase at 0.2 uM incubated for 24 hrs by PI staining based flow cytometric analysis (reference value: 11.3%). It counts as functional.
Data set [26] relates to MDA-MB-231. The data set is described as follows: Induction of cell cycle arrest in human MDA-MB-231 cells assessed as accumulation of cells at G1 phase at 10 uM incubated for 24 hrs by PI staining based flow cytometric analysis (reference value: 58.1%). It is filed as functional.
Data set [27] concerns MDA-MB-231. The data set is described as follows: Induction of cell cycle arrest in human MDA-MB-231 cells assessed as accumulation of cells at S phase at 10 uM incubated for 24 hrs by PI staining based flow cytometric analysis (reference value: 29.2%). It counts as functional.
Data set [28] deals with MDA-MB-231. As to the kind of experiment: Induction of cell cycle arrest in human MDA-MB-231 cells assessed as accumulation of cells at G2/M phase at 10 uM incubated for 24 hrs by PI staining based flow cytometric analysis (reference value: 11.3%). It counts as functional.

Poly [ADP-ribose] polymerase 1, sequence (P09874 whole entry): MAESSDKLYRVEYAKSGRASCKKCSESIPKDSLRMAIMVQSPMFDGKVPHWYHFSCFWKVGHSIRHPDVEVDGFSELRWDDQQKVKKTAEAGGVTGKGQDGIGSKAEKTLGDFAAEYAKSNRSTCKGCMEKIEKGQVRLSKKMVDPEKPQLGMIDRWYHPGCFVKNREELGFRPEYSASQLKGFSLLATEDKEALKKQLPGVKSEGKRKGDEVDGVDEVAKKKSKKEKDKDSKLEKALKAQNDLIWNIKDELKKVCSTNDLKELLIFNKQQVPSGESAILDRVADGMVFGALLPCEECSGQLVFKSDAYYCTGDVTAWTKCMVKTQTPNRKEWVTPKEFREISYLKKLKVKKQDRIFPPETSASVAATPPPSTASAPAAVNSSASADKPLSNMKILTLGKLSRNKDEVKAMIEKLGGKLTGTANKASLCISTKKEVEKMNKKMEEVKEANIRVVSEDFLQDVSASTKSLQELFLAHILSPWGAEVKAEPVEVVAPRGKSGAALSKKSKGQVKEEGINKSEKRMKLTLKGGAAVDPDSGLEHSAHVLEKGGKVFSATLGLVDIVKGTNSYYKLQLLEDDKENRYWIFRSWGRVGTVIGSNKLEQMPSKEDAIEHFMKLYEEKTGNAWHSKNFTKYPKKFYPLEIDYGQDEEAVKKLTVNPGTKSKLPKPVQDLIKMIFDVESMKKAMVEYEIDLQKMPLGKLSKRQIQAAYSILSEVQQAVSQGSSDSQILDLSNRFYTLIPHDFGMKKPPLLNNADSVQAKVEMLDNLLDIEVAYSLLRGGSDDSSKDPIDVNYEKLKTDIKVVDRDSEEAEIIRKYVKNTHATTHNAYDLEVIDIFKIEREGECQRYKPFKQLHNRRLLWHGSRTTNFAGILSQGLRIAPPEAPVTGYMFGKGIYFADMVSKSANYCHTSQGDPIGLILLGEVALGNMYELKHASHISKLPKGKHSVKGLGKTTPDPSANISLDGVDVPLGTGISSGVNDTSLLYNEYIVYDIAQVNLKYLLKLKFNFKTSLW
Cyclin-dependent kinase 9, sequence (P50750 whole entry): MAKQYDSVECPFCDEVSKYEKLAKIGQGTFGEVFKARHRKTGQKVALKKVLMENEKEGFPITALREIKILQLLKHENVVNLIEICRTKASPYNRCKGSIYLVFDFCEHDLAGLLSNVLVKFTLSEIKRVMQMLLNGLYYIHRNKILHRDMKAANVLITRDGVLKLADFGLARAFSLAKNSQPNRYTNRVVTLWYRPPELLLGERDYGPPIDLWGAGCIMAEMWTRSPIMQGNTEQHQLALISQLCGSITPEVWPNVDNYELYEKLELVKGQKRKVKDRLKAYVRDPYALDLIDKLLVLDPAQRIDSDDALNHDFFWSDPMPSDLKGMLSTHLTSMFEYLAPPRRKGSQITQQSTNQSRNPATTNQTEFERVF
Description for HCT-116: Antiproliferative activity against human HCT-116 cells assessed as inhibition of cell proliferation incubated for 48 hrs by CCK-8 assay
Description for HeLa: Antiproliferative activity against human HeLa cells assessed as inhibition of cell proliferation incubated for 48 hrs by CCK-8 assay
Description for MCF7: Antiproliferative activity against human MCF7 cells assessed as inhibition of cell proliferation incubated for 48 hrs by CCK-8 assay

Usually IC50 stands for the concentration needed to halve the response being measured. By half-life is commonly meant how long it takes for the measured level to halve. On to `COc1cc(F)ccc1-c1cc(Nc2cc(CS(C)(=N)=O)ccn2)ncc1F` (stereo not drawn) [ENITOCICLIB], for which the IC50 in the data set on MOLM-13 was 80 nM; with MV4-11 it was 110 nM; in the data set with HeLa, 200 nM; in the data set with HCT-116 it was 180 nM; in the data set with MCF7, 50 nM; in the data set with MDA-MB-231 [12], 270 nM. The Activity in the data set on MDA-MB-231 [1] turned out to be 82.1%; in the data set on MDA-MB-231 [2] it was 6.48%; in the data set with MDA-MB-231 [3], 7.66%; in the data set with MDA-MB-231 [4] it was 3.8%; in the data set with MDA-MB-231 [5], 54.9%; in the data set on MDA-MB-231 [6], 29.1%. For the same molecule, in the data set with MDA-MB-231 [7], the Activity came to 16.5%. Further, the half-life at 1 mg/ml in data set [8] is 5.78 h. Also, the remaining at 8 h, 1 mg/ml turned out to be 101% in data set [9] and 97.4% in data set [10]. Besides, the remaining at 3 h in data set [11] was 96%.
As to `COc1ccc(OC)c(-c2cc(Nc3cc(CN4CCN(C(=O)c5cc(Cc6n[nH]c(=O)c7ccccc67)ccc5F)CC4)ccn3)ncn2)c1`, the IC50 was 14 nM in [13] and 315 nM in [14].
In the same order, the values of `COc1cc(F)ccc1-c1cc(Nc2cc(CN3CCN(C(=O)c4cc(Cc5n[nH]c(=O)c6ccccc56)ccc4F)CC3)ccn2)ncc1F` are 43 nM and 17 nM.
In the same order, the values of `O=C(c1cc(Cc2n[nH]c(=O)c3ccccc23)ccc1F)N1CCN(Cc2ccnc(Nc3cc(-c4ccc(F)c5ccoc45)c(F)cn3)c2)CC1` are 118 nM and 54 nM.
With `O=C(c1cc(Cc2n[nH]c(=O)c3ccccc23)ccc1F)N1CCN(Cc2ccnc(Nc3cc(-c4ccc(F)c5ccoc45)ncn3)c2)CC1`, the IC50 was 107 nM in data set [13] and 118 nM in [14].
As to `CCOc1cc(F)ccc1-c1cc(Nc2cc(CN3CCN(C(=O)c4cc(Cc5n[nH]c(=O)c6ccccc56)ccc4F)CC3)ccn2)ncn1`, the IC50 in [13] was 6 nM; in the data set with MOLM-13 it was 690 nM; in the data set on MV4-11, 3830 nM; in data set [14], 15 nM; with HeLa, 250 nM; with HCT-116 it was 130 nM. Moreover, the IC50 came out at 670 nM in the data set on MCF7 and 440 nM in the data set on MDA-MB-231 [12]. In addition, the Activity in the data set with MDA-MB-231 [1] was 82.8%; in the data set on MDA-MB-231 [2] it was 7.87%; in the data set with MDA-MB-231 [3] it was 7.54%; in the data set on MDA-MB-231 [4] it was 1.78%; in the data set with MDA-MB-231 [15] it was 94.9%; with MDA-MB-231 [16], 1.64%. Moreover, the Activity with MDA-MB-231 [17] is given as 2.67%; with MDA-MB-231 [18] it was 0.81%; in the data set with MDA-MB-231 [19] it was 76.1%; in the data set on MDA-MB-231 [20] it was 14.8%; in the data set with MDA-MB-231 [21] it was 8.01%; in the data set with MDA-MB-231 [22] it was 1.07%. Besides, the Activity is on record as 34.8% in the data set on MDA-MB-231 [5]; 31.1% in the data set with MDA-MB-231 [6]; 36.4% in the data set on MDA-MB-231 [7]; 33.1% in the data set with MDA-MB-231 [23]; 40% in the data set on MDA-MB-231 [24]; 27.9% with MDA-MB-231 [25]. Also, the figures for the Activity with MDA-MB-231 [26], with MDA-MB-231 [27] and in the data set on MDA-MB-231 [28] were 25.3%, 45.2% and 29.1%, respectively. Moreover, the half-life at 1 mg/ml in data set [8] is 2.44 h. The remaining at 8 h, 1 mg/ml in [9] was determined as 94.1%; in [10], 96.7%. In addition, the remaining at 3 h in [11] is 94.6%.
